Data on 1 molecule can be found in article PMC9114338 (Scientific Reports, 2022).

Where two headings read alike, the source gives them in different places.

Data set [1] can be described thus: Intravenous TAF pharmacokinetic mouse study (plasma, PBMC, tissue homogenate). It is filed as in vivo, C57BL/6 J mice. The following applies: female, C57BL/6 J, mouse, iv, 0.5 mg. Here is the method: C57BL/6 J Mice (9 groups of 4 animals each; 36 mice total) were administered the study product (0.5 mg dose, 0.1 mL) by intravenous (IV) injection. Animals (N = 4) were sacrificed at the following timepoints: Day 1 (1, 3, 6, 12, 24 h), Day 2, 4, 8, and 14. Blood was collected by exsanguination along with select tissue specimens (vide infra).
The isolation of plasma and PBMCs from blood samples was carried out in a laminar flow hood using aseptic techniques, and the entire process was completed in under 45 min to minimize analyte metabolism. Blood was transferred into collection tubes containing sodium citrate (final concentration, 0.4% w/v), diluted using one volume equivalent of 1 × PBS solution, and mixed by inversion. The minimum final volume was 4.0 mL. Prior to the addition of blood samples, Ficoll-Paque media (MilliporeSigma, Burlington, MA, 3.2 mL) was transferred into a 12 mL LeucoSep tube (Greiner, Monroe, NC) and centrifuged at 1000 g for 20 s at room temperature, causing the media to settle just below the porous barrier. The homogenous, diluted blood-PBS mixture was transferred into the prepared LeucoSep tube and centrifuged at 1000 g for 10 min at room temperature, resulting in the formation of three layers above the porous barrier: (A) top layer, consisting of the plasma fraction; (B) middle, interface layer, containing the PBMCs; and (C) thin lower layer, just above the barrier, consisting of Ficoll-Paque media. Layer A (plasma) was transferred to empty 1.5 mL microfuge tubes in 0.5 mL aliquots, and flash-frozen in liquid nitrogen. Layer B (PBMCs) was transferred into an empty 15 mL centrifuge tube and PBS added to the 12 mL mark, followed by gentle inversion mixing. The suspension was centrifuged at 400 g for 15 min, the supernatant removed, and the pellet resuspended in PBS (10 mL) by gentle pipetting. An aliquot (10 µL) was removed from the suspension for cell counting and the remaining sample was centrifuged at 400 g for 15 min. The supernatant was removed without disturbing the cell pellet, which was treated with ice-cold 70% v/v methanol in molecular-grade water (1.0 mL). The mixture was mixed lightly by vortex agitation to lyse the cells, followed by transfer to a 2.0 mL cryovial that was flash-frozen in liquid nitrogen.
Vaginal, rectal, spleen, and thymus tissue samples were collected from sacrificed animals at Day 1 (12, 24 h), Day 4, and 8; rectal tissue samples were not collected at 12 h. The samples were transferred into pre-weighed sample tubes, weighed, and flash-frozen in liquid nitrogen.
PBMC results were normalized to the number of cells and reported as fmol/10^6 cells or as intracellular concentration based on cell volume, in nM. Tissue results were normalized to sample mass and reported as ng mg^-1 or fmol mg^-1.

For data set [2] the following is noted: subcutaneous dosing of the free drug, humanized mice; cited from earlier work.

For the molecule `C[C@H](Cn1cnc2c(N)ncnc21)OCP(=O)(O)O` [TFV, tenofovir], the half-life (usually the time in which the quantity being followed falls by half) in data set [1] (rectal tissue, read-out: Terminal half-life in rectal tissue (NCA) (converted)) is 43 h; in data set [1] (spleen, read-out: Terminal half-life in spleen (NCA) (converted)), 30.5 h; in data set [1] (thymus, read-out: Terminal half-life in thymus (NCA) (converted)) it was 20.1 h; in data set [1] (vaginal tissue, read-out: Terminal half-life in vaginal tissue (NCA) (converted)), 39.1 h. Further, in data set [2], the “Plasma TFV t1/2” value was 14 h.
